According to patent US20220055989A1, “CONDENSED PYRROLES AS NOVEL BROMODOMAIN INHIBITORS” (ALBERT LUDWING UNIVERSITÄT FREIBURG, priority 2018, published 2022):

Key:
BRD4(1) = target: T1, BRD4(1) (Homo sapiens, UniProt O60885); test: Bromodomain assay % Ctrl determination BRD4(1); settings: lower numbers indicate a stronger binding
T1 construct: BRD4-BD1 was expressed and purified as described previously; made in house
Protocol: (§1) Compounds that bind the bromodomain prevent its binding to the immobilized ligand thus reducing the amount of protein captured. […] Hits are identified by measuring the amount of bromodomain captured in test versus control samples. Bromodomain assays for % Ctrl determination: T7 phage strains displaying bromodomains were grown in parallel in 24-well blocks in an E. coli host derived from the BL21 strain. E. coli were grown to log-phase and infected with T7 phage from a frozen stock (multiplicity of infection=0.4) and incubated with shaking at 32° C. until lysis (90-150 minutes). The lysates were centrifuged (5,000×g) and filtered (0.2 μm) to remove cell debris. […] The liganded beads were blocked with excess biotin and washed with blocking buffer (SeaBlock (Pierce), 1% BSA, 0.05% Tween 20, 1 mM DTT) to remove unbound ligand and to reduce non-specific phage binding. […] Test compounds were prepared as 1000× stocks in 100% DMSO and subsequently diluted 1:25 in monoethylene glycol (MEG). The compounds were then diluted directly into the assays such that the final concentrations of DMSO and MEG were 0.1% and 2.4%, respectively. All reactions were performed in polypropylene 384-well plates in a final volume of 0.02 ml. […] The bromodomain concentration in the eluates was measured by qPCR. […]

SMARCA4 = target: T2, SMARCA4 (Homo sapiens, UniProt P51532); test: Bromodomain assay % Ctrl determination SMARCA4; settings: lower numbers indicate a stronger binding
T2 construct: T7 phage strains displaying bromodomains were grown in parallel; host or cells: T7 phage grown in E. coli host derived from BL21
T2 sequence (P51532 1453-1564 limits assumed): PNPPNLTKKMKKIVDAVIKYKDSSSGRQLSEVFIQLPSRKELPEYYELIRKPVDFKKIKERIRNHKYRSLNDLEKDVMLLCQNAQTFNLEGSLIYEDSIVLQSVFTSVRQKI
Protocol: as §1

BRD3(2) = target: T3, BRD3(2) (Homo sapiens, UniProt Q15059); test: Bromodomain assay % Ctrl determination BRD3(2); settings: lower numbers indicate a stronger binding
T3 construct: T7 phage strains displaying bromodomains were grown in parallel; made in house; host or cells: T7 phage grown in an E. coli host derived from the BL21 strain
T3 sequence (Q15059 306-415 limits assumed): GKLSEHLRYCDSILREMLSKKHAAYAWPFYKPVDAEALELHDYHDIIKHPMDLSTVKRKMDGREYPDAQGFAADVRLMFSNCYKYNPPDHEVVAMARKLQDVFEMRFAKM
Protocol: as §1

BRD2(1) = target: T4, BRD2(1) (Homo sapiens, UniProt P25440); test: Bromodomain assay % Ctrl determination BRD2(1); settings: lower numbers indicate a stronger binding
T4 construct: T7 phage strains displaying bromodomains were grown in parallel; made in house; host or cells: T7 phage grown in an E. coli host derived from the BL21 strain
T4 sequence (P25440 74-180 limits assumed): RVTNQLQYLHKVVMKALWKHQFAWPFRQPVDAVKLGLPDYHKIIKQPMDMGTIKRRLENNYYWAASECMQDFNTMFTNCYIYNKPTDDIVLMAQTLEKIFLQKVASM
Protocol: as §1

BAZ2B = target: T5, BAZ2B (Homo sapiens, UniProt Q9UIF8); test: Bromodomain assay % Ctrl determination BAZ2B; settings: lower numbers indicate a stronger binding
T5 construct: T7 phage strains displaying bromodomains were grown in parallel; made in house; host or cells: T7 phage grown in an E. coli host derived from the BL21 strain
T5 sequence (Q9UIF8 2060-2164 limits assumed): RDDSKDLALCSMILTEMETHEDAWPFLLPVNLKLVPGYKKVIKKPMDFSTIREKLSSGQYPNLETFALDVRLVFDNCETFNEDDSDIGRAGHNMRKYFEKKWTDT
Protocol: as §1

PCAF = target: T6, PCAF (Homo sapiens, UniProt Q92831); test: Bromodomain assay % Ctrl determination PCAF; settings: lower numbers indicate a stronger binding
T6 construct: T7 phage strains displaying bromodomains were grown in parallel; host or cells: T7 phage grown in E. coli host derived from BL21
T6 sequence (Q92831 723-827 limits assumed): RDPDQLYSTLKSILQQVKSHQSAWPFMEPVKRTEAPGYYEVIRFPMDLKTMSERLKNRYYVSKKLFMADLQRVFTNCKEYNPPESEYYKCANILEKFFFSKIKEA
Protocol: as §1

BRD1 [1] = target: T7, BRD1 (Homo sapiens, UniProt O95696); test: Bromodomain assay % Ctrl determination BRD1; settings: lower numbers indicate a stronger binding
T7 construct: T7 phage strains displaying bromodomains were grown in parallel; made in house; host or cells: T7 phage grown in an E. coli host derived from the BL21 strain
T7 sequence (O95696 562-666 limits assumed): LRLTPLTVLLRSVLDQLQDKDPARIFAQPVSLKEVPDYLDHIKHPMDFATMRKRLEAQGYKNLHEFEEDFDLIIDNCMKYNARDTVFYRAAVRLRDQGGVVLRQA
Protocol: as §1

BRDT(1) = target: T8, BRDT(1) (Homo sapiens, UniProt Q58F21); test: Bromodomain assay % Ctrl determination BRDT(1); settings: lower numbers indicate a stronger binding
T8 construct: T7 phage strains displaying bromodomains were grown; host or cells: T7 phage in E. coli derived from BL21
Protocol: as §1

GCN5L2 = target: T9, GCN5L2 (Homo sapiens, UniProt Q92830); test: BROMOscan Kd determination GCN5L2; type: binding
T9 construct: T7 phage strains displaying bromodomains were grown in parallel; host or cells: T7 phage grown in E. coli host derived from BL21
T9 sequence (Q92830 728-832 limits assumed): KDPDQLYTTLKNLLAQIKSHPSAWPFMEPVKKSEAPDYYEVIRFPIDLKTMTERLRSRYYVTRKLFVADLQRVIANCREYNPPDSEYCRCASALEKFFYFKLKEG
Protocol: (§2) Bromodomain profiling was carried out on the basis of BROMOscan™. This platform accounted for the indirect determination of the dissociation constants between 19 bromodomains and the compound of formula (13), by binding competition against a reference immobilized ligand. Compounds that bind the bromodomain prevent its binding to the immobilized ligand thus reducing the amount of protein captured. […] Hits are identified by measuring the amount of bromodomain captured in test versus control samples. Bromodomain assays for Kd determination: T7 phage strains displaying bromodomains were grown in parallel in 24-well blocks in an E. coli host derived from the BL21 strain. E. coli were grown to log-phase and infected with T7 phage from a frozen stock (multiplicity of infection=0.4) and incubated with shaking at 32° C. until lysis (90-150 minutes). The lysates were centrifuged (5,000×g) and filtered (0.2 μm) to remove cell debris. […] Kds were determined using an 11-point 3-fold compound dilution series with one DMSO control point. […] The bromodomain concentration in the eluates was measured by qPCR. […] Most Kds were determined using a compound top concentration=10,000 nM. […] Binding Constants (Kds): Binding constants (Kds) were calculated with a standard dose-response curve using the Hill equation: The Hill Slope was set to −1. […]

PBRM1(5) = target: T10, PBRM1(5) (Homo sapiens, UniProt Q86U86); test: BROMOscan Kd determination PBRM1(5); type: binding
T10 construct: T7 phage strains displaying bromodomains were grown in parallel; host or cells: T7 phage grown in E. coli host derived from BL21
T10 sequence (Q86U86 653-763 limits assumed): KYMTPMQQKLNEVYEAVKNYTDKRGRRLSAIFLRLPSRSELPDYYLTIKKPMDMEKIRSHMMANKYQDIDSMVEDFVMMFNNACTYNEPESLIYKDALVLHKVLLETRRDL
Protocol: as §2

BRD1 [2] = target: T7, BRD1; test: BROMOscan Kd determination BRD1; type: binding
Protocol: as §2

BRD4(short-iso.) = target: T11, BRD4(short-iso.) (Homo sapiens, UniProt O60885); test: BROMOscan Kd determination BRD4(short-iso.); type: binding
T11 construct: host or cells: T7 phage in E. coli derived from BL21
Protocol: as §2

TRIM24 (Bromo.) = target: T12, TRIM24 (Bromo.) (Homo sapiens, UniProt O15164); test: BROMOscan Kd determination TRIM24 (Bromo.); type: binding
T12 construct: T7 phage strains displaying bromodomains were grown in parallel; host or cells: T7 phage grown in E. coli host derived from BL21
T12 sequence (O15164 899-1004 limits assumed): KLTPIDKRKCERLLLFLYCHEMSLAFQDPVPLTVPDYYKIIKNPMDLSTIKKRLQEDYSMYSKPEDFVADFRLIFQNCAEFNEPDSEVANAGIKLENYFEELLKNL
Protocol: as §2

TRIM33(PHD, Bromo.) = target: T13, TRIM33(PHD, Bromo.) (Homo sapiens, UniProt Q9UPN9); test: BROMOscan Kd determination TRIM33(PHD, Bromo.); type: binding
T13 construct: TRIM33(PHD, Bromo.); the phage DNA is read by qPCR
T13 sequence (Q9UPN9 whole entry): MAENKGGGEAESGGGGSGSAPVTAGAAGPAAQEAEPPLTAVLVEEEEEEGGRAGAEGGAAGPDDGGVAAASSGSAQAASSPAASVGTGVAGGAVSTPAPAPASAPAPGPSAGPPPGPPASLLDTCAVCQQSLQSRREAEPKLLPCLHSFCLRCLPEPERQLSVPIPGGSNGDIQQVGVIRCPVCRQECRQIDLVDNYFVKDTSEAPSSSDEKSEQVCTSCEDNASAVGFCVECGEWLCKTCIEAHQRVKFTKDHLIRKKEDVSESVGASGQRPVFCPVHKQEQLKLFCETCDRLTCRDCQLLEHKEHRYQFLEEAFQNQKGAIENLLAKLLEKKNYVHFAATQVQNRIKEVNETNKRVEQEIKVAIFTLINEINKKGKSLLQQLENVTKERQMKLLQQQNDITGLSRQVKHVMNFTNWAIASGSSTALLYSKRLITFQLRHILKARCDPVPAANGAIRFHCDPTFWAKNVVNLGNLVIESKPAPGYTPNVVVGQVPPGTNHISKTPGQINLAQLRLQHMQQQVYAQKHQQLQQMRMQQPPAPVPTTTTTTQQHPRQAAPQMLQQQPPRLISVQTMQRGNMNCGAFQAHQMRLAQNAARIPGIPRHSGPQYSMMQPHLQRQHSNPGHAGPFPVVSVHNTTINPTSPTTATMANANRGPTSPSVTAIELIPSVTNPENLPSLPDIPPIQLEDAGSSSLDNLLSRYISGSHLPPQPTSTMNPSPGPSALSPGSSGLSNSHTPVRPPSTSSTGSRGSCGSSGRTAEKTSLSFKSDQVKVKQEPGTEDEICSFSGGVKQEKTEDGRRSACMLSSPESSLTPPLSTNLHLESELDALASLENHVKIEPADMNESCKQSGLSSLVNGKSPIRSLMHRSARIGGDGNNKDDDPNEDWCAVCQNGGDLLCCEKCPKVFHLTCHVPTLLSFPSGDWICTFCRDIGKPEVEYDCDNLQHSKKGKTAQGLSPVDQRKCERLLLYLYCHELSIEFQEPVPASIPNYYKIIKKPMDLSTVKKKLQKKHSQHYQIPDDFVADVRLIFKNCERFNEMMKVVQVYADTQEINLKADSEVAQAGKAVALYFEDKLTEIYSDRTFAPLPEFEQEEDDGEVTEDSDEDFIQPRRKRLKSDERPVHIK
Protocol: as §2

% Ctrl @ 10 000 nM BRD4(1) (BRD4(1))	% Ctrl @ 10 000 nM SMARCA4 (SMARCA4)	% Ctrl @ 10 000 nM BRD3(2) (BRD3(2))	% Ctrl @ 10 000 nM BRD2(1) (BRD2(1))	% Ctrl @ 10 000 nM BAZ2B (BAZ2B)	% Ctrl @ 10 000 nM PCAF (PCAF)	% Ctrl @ 10 000 nM BRD1 (BRD1 [1])	% Ctrl @ 10 000 nM BRDT(1) (BRDT(1))	Kd (GCN5L2)	Kd (PBRM1(5))	Kd (BRD1 [2])	Kd (BRD4(short-iso.))	Kd (TRIM24 (Bromo.))	Kd (TRIM33(PHD, Bromo.))	Compound
0 % Ctrl	71 % Ctrl	0 % Ctrl	0 % Ctrl	6.8 % Ctrl	20 % Ctrl	26 % Ctrl	0 % Ctrl							COc1ccc(S(=O)(=O)N2CCOCC2)cc1NC(=O)c1[nH]c(C)c2c1CCCCC2=O [Compound 13, N-(2-methoxy-5-(morpholinosulfonyl)phenyl)-3-methyl-4-oxo-2,4,5,6,7,8-hexahydrocyclohepta[c]pyrrole-1-carboxamide]
								> 10 µM	3.8 µM	3.1 µM	0.18 µM	1.4 µM	7.7 µM	Cc1[nH]c(-c2cc(N)ccc2Cl)c2c1C(=O)CCCC2 [Compound 23]
